Laboratory results from US11814391B2, “Macrocyclic compounds for the treatment of medical disorders” (Achillion Pharmaceuticals, Inc., priority 2018, dated 2023).
Where two headings read alike, the source gives them in different places.

Details: rcm bond, Grubbs II

For CC(=O)c1nn2c3c(cc(-c4cnc5cc(C)nn5c4)cc13)CC=CCC[C@@H](C)C(=O)NC[C@@]13C[C@@H](C(=O)Nc4nc(C(F)(F)F)ccc4C)N(C(=O)C2)[C@@H]1C3, the ring closure, isolated yield (from C=CCC[C@@H](C)C(=O)NC[C@@]12C[C@@H](C(=O)Nc3nc(C(F)(F)F)ccc3C)N(C(=O)Cn3nc(C(C)=O)c4cc(-c5cnc6cc(C)nn6c5)cc(CC=C)c43)[C@@H]1C2, 17-membered ring, toluene, 1.64 mM, 80.0 °C) was 66.7%.
For CC(=O)c1nn2c3c(cc(-c4cnc(C)nc4)cc13)CC=CCCCCN(C(=O)OC(C)(C)C)C[C@@]13C[C@@H](C(=O)Nc4nc(C(F)(F)F)ccc4C)N(C(=O)C2)[C@@H]1C3, the ring closure, isolated yield (from C=CCCCCN(C[C@@]12C[C@@H](C(=O)Nc3nc(C(F)(F)F)ccc3C)N(C(=O)Cn3nc(C(C)=O)c4cc(-c5cnc(C)nc5)cc(CC=C)c43)[C@@H]1C2)C(=O)OC(C)(C)C, 17-membered ring, toluene, 1.2 mM, 80.0 °C) was 60.4%.
Compound CC(=O)c1nn2c3c(cc(N4CCCC4)cc13)CC=CCCCC(=O)NC[C@@]13C[C@@H](C(=O)Nc4nc(C(F)(F)F)ccc4C)N(C(=O)C2)[C@@H]1C3 has a ring closure, isolated yield (from C=CCCCC(=O)NC[C@@]12C[C@@H](C(=O)Nc3nc(C(F)(F)F)ccc3C)N(C(=O)Cn3nc(C(C)=O)c4cc(N5CCCC5)cc(CC=C)c43)[C@@H]1C2, 17-membered ring, toluene, 2.0 mM, 80.0 °C, 16.0 h) of 92.5%.
CC(=O)c1nn2c3c(cc(CCC(C)C)cc13)CC=CCCCC(=O)NC[C@@]13C[C@@H](C(=O)Nc4nc(C(F)(F)F)ccc4C)N(C(=O)C2)[C@@H]1C3 gave a ring closure, isolated yield (from C=CCCCC(=O)NC[C@@]12C[C@@H](C(=O)Nc3nc(C(F)(F)F)ccc3C)N(C(=O)Cn3nc(C(C)=O)c4cc(CCC(C)C)cc(CC=C)c43)[C@@H]1C2, 17-membered ring, toluene, 1.38 mM, 80.0 °C, 16.0 h) of 27.7%.
“(1R,3S,5R)-2-(2-(3-Acetyl-7-allyl-5-(2-methylpyrimidin-5-yl)-1H-indazol-1-yl)acetyl)-N-(3-methyl-6-(trifluoromethyl)pyridin-2-yl)-5-(((R)-2-methylhex-5-amido)methyl)-2-azabicyclo[3.1.0]hexane-3-carboxamide” showed a ring closure, isolated yield (the molecule shown is the open-chain precursor, 17-membered ring, toluene, 1.72 mM, 80.0 °C) of 47.9%.
CC(=O)c1nn2c3c(cc(-c4nnc(C)o4)cc13)CC=CCCCC(=O)NC[C@@]13C[C@@H](C(=O)Nc4nc(C(F)(F)F)ccc4C)N(C(=O)C2)[C@@H]1C3 gave a ring closure, isolated yield (from C=CCCCC(=O)NC[C@@]12C[C@@H](C(=O)Nc3nc(C(F)(F)F)ccc3C)N(C(=O)Cn3nc(C(C)=O)c4cc(-c5nnc(C)o5)cc(CC=C)c43)[C@@H]1C2, 17-membered ring, toluene, 1.36 mM, 80.0 °C, 16.0 h) of 83.2%.
Work on CC(=O)c1nn2c3c(cc(-c4cnc(C)nc4)cc13)CC=CCC(C)(C)CC(=O)NC[C@@]13C[C@@H](C(=O)Nc4nc(C(F)(F)F)ccc4C)N(C(=O)C2)[C@@H]1C3 yielded a ring closure, isolated yield (from C=CCc1cc(-c2cnc(C)nc2)cc2c(C(C)=O)nn(CC(=O)N3[C@H](C(=O)Nc4nc(C(F)(F)F)ccc4C)C[C@@]4(CNC(=O)CC(C)(C)CC=C)C[C@@H]34)c12, 17-membered ring, toluene, 1.2 mM, 80.0 °C) of 67.4%.
For CC(=O)c1nn2c3c(cc(-c4cnc(C)cn4)cc13)CC=CCC[C@@H](C)C(=O)NC[C@@]13C[C@@H](C(=O)Nc4nc(C(F)(F)F)ccc4C)N(C(=O)C2)[C@@H]1C3, the ring closure, isolated yield (from C=CCC[C@@H](C)C(=O)NC[C@@]12C[C@@H](C(=O)Nc3nc(C(F)(F)F)ccc3C)N(C(=O)Cn3nc(C(C)=O)c4cc(-c5cnc(C)cn5)cc(CC=C)c43)[C@@H]1C2, 17-membered ring, toluene, 1.32 mM, 80.0 °C) was 62.1%.
In the case of CC(=O)c1nn2c3c(cc(-c4cnc(C)nc4)cc13)CC=CCC[C@@H](C)C(=O)NC[C@@]13C[C@@H](C(=O)Nc4cc(F)cc(Br)n4)N(C(=O)C2)[C@@H]1C3, the ring closure, isolated yield (from C=CCC[C@@H](C)C(=O)NC[C@@]12C[C@@H](C(=O)Nc3cc(F)cc(Br)n3)N(C(=O)Cn3nc(C(C)=O)c4cc(-c5cnc(C)nc5)cc(CC=C)c43)[C@@H]1C2, 17-membered ring, toluene, 1.63 mM, 80.0 °C, 16.0 h) is reported as 72.6%.
In the case of CC(=O)c1nn2c3c(cc(Oc4ncc(C)cn4)cc13)CC=CCCCC(=O)NC[C@@]13C[C@@H](C(=O)Nc4nc(C(F)(F)F)ccc4C)N(C(=O)C2)[C@@H]1C3, the ring closure, isolated yield (from C=CCCCC(=O)NC[C@@]12C[C@@H](C(=O)Nc3nc(C(F)(F)F)ccc3C)N(C(=O)Cn3nc(C(C)=O)c4cc(Oc5ncc(C)cn5)cc(CC=C)c43)[C@@H]1C2, 17-membered ring, toluene, 1.5 mM, 80.0 °C) is reported as 61.5%.
Work on CC(=O)c1nn2c3c(cc(OCC(C)C)cc13)CC=CCCCC(=O)NC[C@@]13C[C@@H](C(=O)Nc4nc(C(F)(F)F)ccc4C)N(C(=O)C2)[C@@H]1C3 yielded a ring closure, isolated yield (from C=CCCCC(=O)NC[C@@]12C[C@@H](C(=O)Nc3nc(C(F)(F)F)ccc3C)N(C(=O)Cn3nc(C(C)=O)c4cc(OCC(C)C)cc(CC=C)c43)[C@@H]1C2, 17-membered ring, toluene, 1.71 mM, 80.0 °C, 16.0 h) of 92%.
CC(=O)c1nn2c3c(cc(C)cc13)CC=CCCCC(=O)NC[C@@]13C[C@@H](C(=O)Nc4nc(C(F)(F)F)ccc4C)N(C(=O)C2)[C@@H]1C3 gave a ring closure, isolated yield (from C=CCCCC(=O)NC[C@@]12C[C@@H](C(=O)Nc3nc(C(F)(F)F)ccc3C)N(C(=O)Cn3nc(C(C)=O)c4cc(C)cc(CC=C)c43)[C@@H]1C2, 17-membered ring, toluene, 1.77 mM, 80.0 °C, 16.0 h) of 86.7% and a ring closure, isolated yield (from C=CCCCC(=O)NC[C@@]12C[C@@H](C(=O)Nc3nc(C(F)(F)F)ccc3C)N(C(=O)Cn3nc(C(C)=O)c4cc(C)cc(CC=C)c43)[C@@H]1C2, 17-membered ring, toluene, 1.88 mM, 80.0 °C, 12.0 h) of 62.6%.
CC(=O)c1nn2c3c(cc(-c4cnc(C)nc4)cc13)CCCCCCC=CCCN([C@@H](C)C(=O)Nc1nc(Br)ccc1C)C(=O)C2 gave a ring closure, isolated yield (from C=CCCCCCCc1cc(-c2cnc(C)nc2)cc2c(C(C)=O)nn(CC(=O)N(CCC=C)[C@@H](C)C(=O)Nc3nc(Br)ccc3C)c12, 16-membered ring, toluene, 1.33 mM, 80.0 °C, 16.0 h) of 88.9%.
With C=Cc1cc(-c2cnc(C)nc2)cc2c(C(C)=O)nn(CC(=O)N3[C@H](C(=O)Nc4nc(C(F)(F)F)ccc4C)C[C@@]4(CNC(=O)C[C@@H](C)CCC=C(C)C)C[C@@H]34)c12 the ring closure, isolated yield (the molecule shown is the open-chain precursor, 17-membered ring, DCE, 1.25 mM, 50.0 °C) was 55.6%.
In the case of CN(C(=O)OCc1ccccc1)[C@H]1CC=CCCCCCCc2ccc(Br)nc2NC1=O, the ring closure, isolated yield (from C=CCCCCCCc1ccc(Br)nc1NC(=O)[C@H](CC=C)N(C)C(=O)OCc1ccccc1, 14-membered ring, toluene, 1.85 mM, 80.0 °C, 16.0 h) is reported as 79.6%.
In the case of “(1,R,3S,5R)-2-{2-[3-Acetyl-5-methoxy-7-(prop-2-en-1-yl)indazol-1-yl]acetyl}-5-(hex-5-enamidonaethyl)-N-[3-methyl-6-(trifluoromethyl)pyridin-2-yl]-2-azabicyclo[3.1.0]hexane-3-carboxamide”, the ring closure, isolated yield (the molecule shown is the open-chain precursor, 17-membered ring, toluene, 1.43 mM, 80.0 °C) is reported as 69.1%.
Compound CC(=O)c1nn2c3c(cc(-c4cnc(C)nc4)cc13)CC=CCCCC(=O)N(C)C[C@@]13C[C@@H](C(=O)Nc4cc(F)cc(Br)n4)N(C(=O)C2)[C@@H]1C3 has a ring closure, isolated yield (from C=CCCCC(=O)N(C)C[C@@]12C[C@@H](C(=O)Nc3cc(F)cc(Br)n3)N(C(=O)Cn3nc(C(C)=O)c4cc(-c5cnc(C)nc5)cc(CC=C)c43)[C@@H]1C2, 17-membered ring, toluene, 1.29 mM, 80.0 °C, 16.0 h) of 94.5%.
With CC(=O)c1nn2c3c(cc(C=C(C)C)cc13)CC=CCCCC(=O)NC[C@@]13C[C@@H](C(=O)Nc4nc(C(F)(F)F)ccc4C)N(C(=O)C2)[C@@H]1C3 the ring closure, isolated yield (from C=CCCCC(=O)NC[C@@]12C[C@@H](C(=O)Nc3nc(C(F)(F)F)ccc3C)N(C(=O)Cn3nc(C(C)=O)c4cc(C=C(C)C)cc(CC=C)c43)[C@@H]1C2, 17-membered ring, toluene, 1.67 mM, 80.0 °C, 16.0 h) was 69.4%.
CC(=O)c1nn2c3c(cc(-c4cnc(C)nc4)cc13)N(C(=O)OCc1ccccc1)CC=CCCC(=O)NCC13CC(C(=O)Nc4nc(C(F)(F)F)ccc4C)N(C(=O)C2)C1C3 (centres unmarked) showed a ring closure, isolated yield (from C=CCCC(=O)NCC12CC(C(=O)Nc3nc(C(F)(F)F)ccc3C)N(C(=O)Cn3nc(C(C)=O)c4cc(-c5cnc(C)nc5)cc(N(CC=C)C(=O)OCc5ccccc5)c43)C1C2, 17-membered ring, toluene, 1.42 mM, 80.0 °C) of 57.2%.
With CC(=O)c1nn2c3c(cc(-c4cnc(C)nc4)cc13)CC=CCCC(C)(C)C(=O)NC[C@@]13C[C@@H](C(=O)Nc4nc(C(F)(F)F)ccc4C)N(C(=O)C2)[C@@H]1C3 the ring closure, isolated yield (from C=CCCC(C)(C)C(=O)NC[C@@]12C[C@@H](C(=O)Nc3nc(C(F)(F)F)ccc3C)N(C(=O)Cn3nc(C(C)=O)c4cc(-c5cnc(C)nc5)cc(CC=C)c43)[C@@H]1C2, 17-membered ring, toluene, 1.6 mM, 80.0 °C, 16.0 h) was 71.3%.
With C=C(C)c1cc2c3c(c1)c(C(C)=O)nn3CC(=O)N1[C@H](C(=O)Nc3nc(C(F)(F)F)ccc3C)C[C@@]3(CNC(=O)CCCC=CC2)C[C@@H]13 the ring closure, isolated yield (from C=CCCCC(=O)NC[C@@]12C[C@@H](C(=O)Nc3nc(C(F)(F)F)ccc3C)N(C(=O)Cn3nc(C(C)=O)c4cc(C(=C)C)cc(CC=C)c43)[C@@H]1C2, 17-membered ring, toluene, 1.43 mM, 80.0 °C, 16.0 h) was 21.7%.
CC(=O)c1nn2c3c(cc(-c4cnc(C)nc4)cc13)CC=CCC[C@@H](C)C(=O)NC[C@@]13C[C@@H](C(=O)Nc4ccc(F)c(Br)n4)N(C(=O)C2)[C@@H]1C3 showed a ring closure, isolated yield (from C=CCC[C@@H](C)C(=O)NC[C@@]12C[C@@H](C(=O)Nc3ccc(F)c(Br)n3)N(C(=O)Cn3nc(C(C)=O)c4cc(-c5cnc(C)nc5)cc(CC=C)c43)[C@@H]1C2, 17-membered ring, toluene, 1.67 mM, 80.0 °C) of 62.8%.
